Experiments:
[1] = biological target: T1, human neutrophil cathepsin G (Homo sapiens, UniProt P08311); experiment: Enzyme-catalyzed hydrolysis assay, cathepsin G (chromogenic substrate Suc-Ala-Ala-Pro-Phe-pNa); format: biochemical; conditions: 70 nM enzyme, 5 mM substrate, pH 7.4, 37° C., 30 minutes; read-out: IC50 (μM) CatG
T1 construct: human neutrophil cathepsin G (Athens Research and Technology); purchased Athens Research and Technology; host or cells: human neutrophils (from the enzyme's name)
T1 sequence (P08311 21-243 limits assumed): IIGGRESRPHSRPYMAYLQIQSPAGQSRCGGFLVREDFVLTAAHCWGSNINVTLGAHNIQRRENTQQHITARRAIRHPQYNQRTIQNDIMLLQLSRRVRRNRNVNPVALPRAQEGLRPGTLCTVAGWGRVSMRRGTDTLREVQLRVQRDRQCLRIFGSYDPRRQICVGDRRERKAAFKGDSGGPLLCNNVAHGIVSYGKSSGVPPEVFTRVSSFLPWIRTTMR
Protocol: (§1) Enzyme-catalyzed hydrolysis rates were measured spectrophotometrically using human neutrophil cathepsin G (Athens Research and Technology) or human skin chymase (Cortex Biochem), a chromogenic substrate (Suc-Ala-Ala-Pro-Phe-pNa) (Bachem) in aqueous buffer (100 mM Hepes, 500 mM NaCl, pH 7.4 for catG; 450 mM Tris, 1800 mM NaCl, pH 8.0 for chymase), and a microplate reader (Molecular Devices). […] Percent inhibition was calculated by comparing the initial reaction slopes of the samples without inhibitor to those with inhibitor. IC50 values were determined using a four parameter fit logistics model. The term “NT” indicates a compound that was not tested.

[2] = biological target: T2, human skin chymase (Homo sapiens, UniProt P23946); experiment: Enzyme-catalyzed hydrolysis assay, chymase (chromogenic substrate Suc-Ala-Ala-Pro-Phe-pNa); format: biochemical; conditions: 10 nM enzyme, 0.7 mM substrate, pH 8.0, 37° C., 30 minutes
T2 construct: human skin chymase (Cortex Biochem); purchased Cortex Biochem; host or cells: human skin (from the enzyme's name)
T2 sequence (P23946 22-247): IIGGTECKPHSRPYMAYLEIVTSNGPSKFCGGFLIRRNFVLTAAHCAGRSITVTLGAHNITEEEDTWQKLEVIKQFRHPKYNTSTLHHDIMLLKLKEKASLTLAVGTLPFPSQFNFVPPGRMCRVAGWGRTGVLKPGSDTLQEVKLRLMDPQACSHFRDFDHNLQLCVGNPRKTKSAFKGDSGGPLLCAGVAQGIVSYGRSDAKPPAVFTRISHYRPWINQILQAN
Protocol: as §1

Molecule | IC50 [1] [µM] | IC50 [2] [µM]
CN(C(=O)c1cc2ccccc2cc1C(=O)C(c1cccc2ccccc12)P(=O)(O)O)C1CCN(C(=O)c2ccc3cc(Br)ccc3c2)CC1 (stereo not drawn) [Compound 4] | 0.09 ± 0.02 | 0.0039 ± 0.0001
[2-[3-[[[1-[(2E)-3-(4-fluorophenyl)-1-oxo-2-propenyl]-3-pyrrolidinyl]methylamino]carbonyl]-2-naphthalenyl]-1-(1-naphthalenyl)-2-oxoethyl]-phosphonic acid [Compound 5] | 0.072 ± 0.021 | 0.2 ± 0.4
[2-[3-[[[1-[(6-hydroxy-2-naphthalenyl)carbonyl]-4-piperidinyl]methylamino]carbonyl]-2-naphthalenyl]-1-(1-naphthalenyl)-2-oxoethyl]-phosphonic acid [Compound 24] | 0.078 ± 0.015 | 0.0035 ± 0.0013
COP(=O)(O)C(C(=O)c1cc2ccccc2cc1C(=O)N(C)C1CCN(C(=O)c2ccc3ccccc3c2)CC1)c1cccc2ccccc12 (stereo not drawn) [Compound 23, [2[3-[[methyl[1-(2-naphthalenylcarbonyl)-4-piperidinyl]amino]carbonyl]-2-naphthalenyl]-1-(1-naphthalenyl)-2-oxoethyl]-phosphonic acid methyl ester] | 0.67 | 0.416
[2-[3-[[[1-[(6-methoxy-2-naphthalenyl)carbonyl]-3-pyrrolidinyl]methylamino]carbonyl]-2-naphthalenyl]-1-(1-naphthalenyl)-2-oxoethyl]-phosphonic acid [Compound 3] | 0.068 ± 0.019 | 0.072 ± 0.008
[2-[3-[[[4-(1,1-dimethylethyl)cyclohexyl]methylamino]carbonyl]-2-naphthalenyl]-1-(1-naphthalenyl)-2-oxoethyl]-phosphonic acid [Compound 22] | 0.14 ± 0.04 | 0.009 ± 0.023
[2-[3-[(cyclopentylmethylamino)carbonyl]-2-naphthalenyl]-1-(1-naphthalenyl)-2-oxoethyl]-phosphonic acid [Compound 21] | 0.07 ± 0.02 | 0.0096 ± 0.0034
CN(C(=O)c1cc2ccccc2cc1C(=O)C(c1cccc2ccccc12)P(=O)(O)O)C1CCC(c2ccccc2)CC1 (stereo not drawn) [Compound 1, [2-[3-[[methyl(4-phenylcyclohexyl)amino]carbonyl]-2-naphthalenyl]-1-(1-naphthalenyl)-2-oxoethyl]-phosphonic acid] | 0.083 ± 0.014 | 0.0053 ± 0.0019
CN(C(=O)c1cc2ccccc2cc1C(=O)C(c1cccc2ccccc12)P(=O)(O)O)C1CCN(C(=O)/C=C/c2ccccc2)CC1 (stereo not drawn) [Compound 6, [2-[3-[[methyl[1-[(2E)-1-oxo-3-phenyl-2-propenyl]-4-piperidinyl]amino]carbonyl]-2-naphthalenyl]-1-(1-naphthalenyl)-2-oxoethyl]-phosphonic acid] | 0.067 ± 0.014 | 0.0035 ± 0.0015
[2-[3-[(cyclohexylmethylamino)carbonyl]-2-naphthalenyl]-1-(1-naphthalenyl)-2-oxoethyl]-phosphonic acid [Compound 17] | 0.098 ± 0.026 | 0.0072 ± 0.0015

More lines, now with the values ahead:

IC50 [1] [µM] | IC50 [2] [µM] | Molecule
0.028 ± 0.006 | 0.001 | CN(C(=O)c1cc2ccccc2cc1C(=O)C(c1cccc2ccccc12)P(=O)(O)O)C1CCN(C(=O)CCc2ccc(C(F)(F)F)cc2)CC1 (stereo not drawn) [Compound 18, [2-[3-[[methyl[1-[1-oxo-3-[4-(trifluoromethyl)phenyl]-propyl]-4-piperidinyl]amino]carbonyl]-2-naphthalenyl]-1-(1-naphthalenyl)-2-oxoethyl]-phosphonic acid]
4.9 ± 2.8 | 0.032 | CN(C(=O)c1cc2ccccc2cc1C(=O)C(c1ccccc1)P(=O)(O)O)C1CCN(C(=O)c2ccc3ccccc3c2)CC1 (stereo not drawn) [Compound 11, [2-[3-[[methyl[1-(2-naphthalenylcarbonyl)-4-piperidinyl]amino]carbonyl]-2-naphthalenyl]-2-oxo-1-phenylethyl]-phosphonic acid]
0.156 ± 0.028 | 0.0097 ± 0.0035 | O=C(c1cc2ccccc2cc1C(=O)N1CCC(CCc2ccccc2)C1)C(c1cccc2ccccc12)P(=O)(O)O (stereo not drawn) [Compound 25, [1-(1-naphthalenyl)-2-oxo-2-[3-[[3-(2-phenylethyl)-1-pyrrolidinyl]carbonyl]-2-naphthalenyl]ethyl]-phosphonic acid]
0.4 ± 0.09 | 0.036 ± 0.011 | CN(CC12CC3CC(CC(C3)C1)C2)C(=O)c1cc2ccccc2cc1C(=O)C(c1cccc2ccccc12)P(=O)(O)O (stereo not drawn) [Compound 28, [2-[1-[[methyl(tricyclo[3.3.1^3,7]dec-1-ylmethyl)amino]carbonyl]-2-naphthalenyl]-1-(1-naphthalenyl)-2-oxoethyl]-phosphonic acid]
0.179 ± 0.038 | 0.0073 ± 0.0017 | COc1ccc(C2CCN(C(=O)c3cc4ccccc4cc3C(=O)C(c3cccc4ccccc34)P(=O)(O)O)CC2)cc1 (stereo not drawn) [Compound 12, [2-[3-[[4-(4-methoxyphenyl)-1-piperidinyl]carbonyl]-2-naphthalenyl]-1-(1-naphthalenyl)-2-oxoethyl]-phosphonic acid]
0.86 ± 0.03 | 0.31 | CN(C(=O)c1cc2ccccc2cc1C(=O)C(c1cccc2ccccc12)P(C)(=O)O)C1CCN(C(=O)c2ccc3ccccc3c2)CC1 (stereo not drawn) [Compound 32, methyl[2-[3-[[methyl[1-(2-naphthalenylcarbonyl)-4-piperidinyl]amino]carbonyl]-2-naphthalenyl]-1-(1-naphthalenyl)-2-oxoethyl]-phosphinic acid]
0.238 ± 0.03 | 0.022 ± 0.062 | O=C(c1cc2ccccc2cc1C(=O)N1CCC(c2ccccc2)C1)C(c1cccc2ccccc12)P(=O)(O)O (stereo not drawn) [Compound 19, [1-(1-naphthalenyl)-2-oxo-2-[3-[(3-phenyl-1-pyrrolidinyl)carbonyl]-2-naphthalenyl]ethyl]-phosphonic acid]
0.15 ± 0.03 | 0.0082 ± 0.0028 | CN(C(=O)c1cc2ccccc2cc1C(=O)C(c1cccc2ccccc12)P(=O)(O)O)C1CC=C(c2ccccc2)CC1 (stereo not drawn) [Compound 29, [2-[3-[[methyl(4-phenyl-3-cyclohexen-1-yl)amino]-carbonyl]-2-naphthalenyl]-1-(1-naphthalenyl)-2-oxoethyl]-phosphonic acid]
0.121 ± 0.007 | 0.001 | CN(C(=O)c1cc2ccccc2cc1C(=O)C(c1csc2ccc(Cl)cc12)P(=O)(O)O)C1CCN(C(=O)c2ccc3ccccc3c2)CC1 (stereo not drawn) [Compound 33, [1-(5-chlorobenzo[b]thien-3-yl)-2-[3-[[methyl[1-(2-naphthalenylcarbonyl)-4-piperidinyl]amino]carbonyl]-2-naphthalenyl]-2-oxoethyl]-phosphonic acid]
0.07 ± 0.01 | 0.0051 ± 0.0022 | CC1CCC(N(C)C(=O)c2cc3ccccc3cc2C(=O)C(c2cccc3ccccc23)P(=O)(O)O)CC1 (stereo not drawn) [Compound 27, [2-[3-[[methyl(4-methylcyclohexyl)amino]carbonyl]-2-naphthalenyl]-1-(1-naphthalenyl)-2-oxoethyl]-phosphonic acid]
0.064 ± 0.008 | 0.004 | CN(C)c1ccc(C=CC(=O)N2CCC(N(C)C(=O)c3cc4ccccc4cc3C(=O)C(c3cccc4ccccc34)P(=O)(O)O)CC2)cc1 (stereo not drawn) [Compound 13, [2-3-[[[1-[(2E)-3-[4-(dimethylamino)phenyl]-1-oxo-2-propenyl]-4-piperidinyl]methylamino]carbonyl]-2-naphthalenyl]-1-(1-naphthalenyl)-2-oxoethyl]-phosphonic acid]
0.21 ± 0.05 | 0.008 ± 0.022 | O=C(c1cc2ccccc2cc1C(=O)N1CCC(c2ccccc2)CC1)C(c1cccc2ccccc12)P(=O)(O)O (stereo not drawn) [Compound 7, [1-(1-naphthalenyl)-2-oxo-2-[3-[(4-phenyl-1-piperidinyl)carbonyl]-2-naphthalenyl]ethyl]-phosphonic acid]
0.053 ± 0.015 | 0.011 ± 0.003 | Cc1ccc(/C=C/C(=O)N2CCC(N(C)C(=O)c3cc4ccccc4cc3C(=O)C(c3cccc4ccccc34)P(=O)(O)O)CC2)cc1 (stereo not drawn) [Compound 9, [2-[3-[[methyl[1-[(2E)-3-(4-methylphenyl)-1-oxo-2-propenyl]-4-piperidinyl]amino]carbonyl]-2-naphthalenyl]-1-(1-naphthalenyl)-2-oxoethyl]-phosphonic acid]
0.59 ± 0.04 | 0.0158 ± 0.0008 | O=C(NC1CCN(C(=O)c2ccc3ccccc3c2)CC1)c1cc2ccccc2cc1C(=O)C(c1cccc2ccccc12)P(=O)(O)O (stereo not drawn) [Compound 30, [1-(1-naphthalenyl)-2-[3-[[[1-(2-naphthalenylcarbonyl)-4-piperidinyl]amino]carbonyl]-2-naphthalenyl]-2-oxoethyl]-phosphonic acid]

From patent US8703957B2 (Janssen Pharmaceutica NV, priority 2001, dated 2014)
